# Test results reported in patent US8067589B2, “Heterocyclic compounds useful in treating diseases and conditions” (Pfizer Inc, priority 2007, dated 2011).
# Molecular target: human recombinant H-PGDS (Homo sapiens, UniProt O60760)
# Assay: Fluoresecence Intensity h-PGDSTBA Enzyme Assay
# Conditions: IC50, 5.0 μM PGH2, 2.5 mM L-Glutathione, 10 min preincubation, 4-parameter fit, highest inhibitor concentration typically 1 μM
# Sequence of human recombinant H-PGDS (O60760 whole entry): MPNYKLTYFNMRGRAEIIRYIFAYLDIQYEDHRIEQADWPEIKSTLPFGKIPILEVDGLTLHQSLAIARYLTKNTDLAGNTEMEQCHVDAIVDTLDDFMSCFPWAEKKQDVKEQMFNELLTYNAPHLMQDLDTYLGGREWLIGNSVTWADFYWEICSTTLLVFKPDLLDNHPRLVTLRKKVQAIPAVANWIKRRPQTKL
row,Structure (SMILES),IC50 [nM]
1,"O=C(NC1CCN(C(COc2ccc(C(F)(F)F)cc2)c2ccccc2)CC1)c1cnc(-c2cccc(F)c2)nc1 (stereo not drawn) [Example 48, 2-(3-Fluorophenyl)-N-(1-{1-phenyl-2-[4-(trifluoromethyl)phenoxy]ethyl}piperidin-4-yl)pyrimidine-5-carboxamide]",29.6
2,"CCCC(=O)N1CCC(NC(=O)c2cnc(-c3ccccc3)nc2C)CC1 [Example 5, N-(1-Butyrylpiperidin-4-yl)-4-methyl-2-phenylpyrimidine-5-carboxamide]",8.02
3,"N#Cc1cccc(OCC(c2ccccc2)N2CCC(NC(=O)c3cnc(-c4cccc(F)c4)nc3)CC2)c1 (stereo not drawn) [Example 40, N-{1-[2-(3-Cyanophenoxy)-1-phenylethyl]piperidin-4-yl}-2-(3-fluorophenyl)pyrimidine-5-carboxamide]",3.02
4,"NC(=O)c1cccnc1N1C[C@H](O)[C@H](NC(=O)c2cnc(-c3cccc(F)c3)nc2)C1 (relative stereo) [Example 99, Cis-N-{1-[3-(Aminocarbonyl)pyridin-2-yl]-4-hydroxypyrrolidin-3-yl}-2-(3-fluorophenyl)pyrimidine-5-carboxamide]",2.65
5,"CC(C)N1CCC(NC(=O)c2cnc(-c3ccccc3)nc2N)CC1 [Example 16, 4-Amino-N-(1-isopropylpiperidin-4-yl)-2-phenyl-pyrimidine-5-carboxamide]",219
6,"O=C(NC1CN(c2nnnn2-c2ccccc2)C1)c1cnc(-c2cccc(F)c2)nc1 [Example 104, 2-(3-Fluorophenyl)-N-[1-(1-phenyl-1H-tetrazol-5-yl)azetidin-3-yl]pyrimidine-5-carboxamide]",0.706
7,"CS(=O)(=O)Nc1cccc(-c2ncc(C(=O)NC3CCN(Cc4ccccn4)CC3)cn2)c1 [Example 176, 2-{3-[(Methylsulfonyl)amino]phenyl}-N-[1-(pyridin-2-ylmethyl)piperidin-4-yl]pyrimidine-5-carboxamide]",2700
8,"COc1ccccc1OCC(c1ccccc1)N1CCC(NC(=O)c2cnc(-c3cccc(F)c3)nc2)CC1 (stereo not drawn) [Example 54, 2-(3-Fluorophenyl)-N-{1-[2-(2-methoxyphenoxy)-1-phenylethyl]piperidin-4-yl}pyrimidine-5-carboxamide]",6.13
9,"O=C(NC1CCN(Cc2ccccc2)CC1)c1cnc(-c2ccccc2)nc1O [Example 19, N-(1-Benzylpiperidin-4-yl)-4-hydroxy-2-phenylpyrimidine-5-carboxamide]",≥ 1000
10,"Nc1nc(-c2ccccc2)ncc1C(=O)NC1CCN(Cc2ccccn2)CC1 [Example 18, 4-Amino-2-phenyl-N-[1-(pyridin-2-ylmethyl)piperidin-4-yl]pyrimidine-5-carboxamide]",16.4
11,"Cc1nc(-c2ccccc2)ncc1C(=O)NC1CCN(CC2CCOCC2)CC1 [Example 7, 4-Methyl-2-phenyl-N-[1-(tetrahydro-2H-pyran-4-ylmethyl)piperidin-4-yl] pyrimidine-5-carboxamide]",30.4
12,"Cc1nc(-c2ccccc2)ncc1C(=O)NC1CCN(Cc2ccccn2)CC1 [Example 3, 4-Methyl-2-phenyl-N-[1-(pyridin-2-ylmethyl)piperidin-4-yl]pyrimidine-5-carboxamide]",14.1
13,"O=C(NC1CCN(CC(F)(F)F)CC1)c1cnc(-c2ccccc2CO)nc1 [Example 113, 2-[2-(Hydroxymethyl)phenyl]-N-[1-(2,2,2-trifluoroethyl)piperidin-4-yl]pyrimidine-5-carboxamide]",1010

# Other lines, results leading:
row,IC50 [nM],Structure (SMILES)
1,6.46,"O=C(NC1CCN(C(COc2cc(F)cc(F)c2)c2ccccc2)CC1)c1cnc(-c2cccc(F)c2)nc1 (stereo not drawn) [Example 34, N-{1-[2-(3,5-Difluorophenoxy)-1-phenylethyl]piperidin-4-yl}-2-(3-fluorophenyl)pyrimidine-5-carboxamide]"
2,0.136,"O=C(NC1CCN(c2cccnn2)CC1)c1cnc(-c2cccc(F)c2)nc1 [Example 26, 2-(3-Fluorophenyl)-N-(1-pyridazin-3-ylpiperidin-4-yl)pyrimidine-5-carboxamide]"
3,3.59,"CCC(C)N1CCC(NC(=O)c2cnc(-c3cccc(F)c3)nc2)CC1 (stereo not drawn) [Example 69, N-(1-sec-Butylpiperidin-4-yl)-2-(3-fluorophenyl)pyrimidine-5-carboxamide]"
4,0.962,"Cc1cc(=O)[nH]c(N2CCC(NC(=O)c3cnc(-c4cccc(F)c4)nc3)CC2)n1 [Example 70, 2-(3-Fluorophenyl)-N-[1-(4-methyl-6-oxo-1,6-dihydropyrimidin-2-yl)piperidin-4-yl]pyrimidine-5-carboxamide]"
5,0.58,"CCOC(=O)N1CCC(NC(=O)c2cnc(-c3cccc(F)c3)nc2)C1 (single isomer, unassigned) [Example 82b, Ethyl 3-(2-(3-fluorophenyl)pyrimidine-5-carboxamido)pyrrolidine-1-carboxylate]"
6,0.27,"O=C(NC1CCN(c2ncc3c(n2)CCOC3)C1)c1cnc(-c2cccc(F)c2)nc1 (single isomer, unassigned) [Example 81a, N-(1-(7,8-Dihydro-5H-pyrano[4,3-d]pyrimidin-2-yl)pyrrolidin-3-yl)-2-(3-fluorophenyl)pyrimidine-5-carboxamide]"
7,11.4,"Cc1cc(F)ccc1OCC(c1ccccc1)N1CCC(NC(=O)c2cnc(-c3cccc(F)c3)nc2)CC1 (stereo not drawn) [Example 57, N-{1-[2-(4-Fluoro-2-methylphenoxy)-1-phenylethyl]piperidin-4-yl}-2-(3-fluorophenyl)pyrimidine-5-carboxamide]"
8,0.211,"Cc1nc(N2CCC(NC(=O)c3cnc(-c4cccc(F)c4)nc3)C2)ncc1S(C)(=O)=O (stereo not drawn) [Example 80, 2-(3-Fluorophenyl)-N-{1-[4-methyl-5-(methylsulfonyl)pyrimidin-2-yl]pyrrolidin-3-yl}pyrimidine-5-carboxamide]"
9,54.8,"O=C(NC1CCN(C(COc2ccc(F)c(Cl)c2)c2ccccc2)CC1)c1cnc(-c2cccc(F)c2)nc1 (stereo not drawn) [Example 42, N-{1-[2-(3-Chloro-4-fluorophenoxy)-1-phenylethyl]piperidin-4-yl}-2-(3-fluorophenyl)pyrimidine-5-carboxamide]"
10,0.457,"O=C(NC1CCN(CC2CCCCC2)CC1)c1cnc(-c2cccc(F)c2)nc1 [Example 52, N-[1-(Cyclohexylmethyl)piperidin-4-yl]-2-(3-fluorophenyl)pyrimidine-5-carboxamide]"
11,14.2,"Cc1ccc(OCC(c2ccccc2)N2CCC(NC(=O)c3cnc(-c4cccc(F)c4)nc3)CC2)cc1C (stereo not drawn) [Example 56, N-{1-[2-(3,4-Dimethylphenoxy)-1-phenylethyl]piperidin-4-yl}-2-(3-fluorophenyl)pyrimidine-5-carboxamide]"
12,59.2,"O=C(NC1CCN(C(COc2cccc(F)c2F)c2ccccc2)CC1)c1cnc(-c2cccc(F)c2)nc1 (stereo not drawn) [Example 53, N-{1-[2-(2,3-Difluorophenoxy)-1-phenylethyl]piperidin-4-yl}-2-(3-fluorophenyl)pyrimidine-5-carboxamide]"
13,8.16,"Cc1ccc(F)c(OCC(c2ccccc2)N2CCC(NC(=O)c3cnc(-c4cccc(F)c4)nc3)CC2)c1 (stereo not drawn) [Example 59, N-{1-[2-(2-Fluoro-5-methylphenoxy)-1-phenylethyl]piperidin-4-yl}-2-(3-fluorophenyl)pyrimidine-5-carboxamide]"
14,0.509,"O=C(NC1CCN(Cc2ccc(F)cc2)CC1)c1cnc(-c2cccc(F)c2)nc1 [Example 63, N-[1-(4-Fluorobenzyl)piperidin-4-yl]-2-(3-fluorophenyl)pyrimidine-5-carboxamide]"
